# Reference: ChEMBL document CHEMBL5244216, “Pyrrole: An insight into recent pharmacological advances with structure activity relationship” (Eur J Med Chem, 2018)
# Key:
# [1] = tested on: Human immunodeficiency virus; assay: Antiviral activity against HIV-CBL 20 infected in MT-4 cells assessed as viral replication measured after 4 days by ELISA; type: functional, organism-based; settings: Human immunodeficiency virus 1, CBL 20, MT4, 96 h
# [2] = Cytotoxicity activity against human MCF7 cells assessed as reduction in cell viability measured after 72 hrs by MTT assay; type: toxicity, cell-based
# [3] = Cytotoxicity activity against human MOLT-4 cells assessed as reduction in cell viability measured after 72 hrs by MTT assay; type: toxicity, cell-based
# [4] = Cytotoxicity activity against human HL-60 cells assessed as reduction in cell viability measured after 72 hrs by MTT assay; type: toxicity, cell-based
# [5] = Inhibition of maize HD2; set-up: species or system Zea mays
# [6] = Inhibition of maize HD1-B; set-up: species or system Zea mays
# [7] = Inhibition of maize HD1-A; set-up: species or system Zea mays
# Pseudomonas aeruginosa = assay: Antibacterial activity against Pseudomonas aeruginosa assessed as reduction in bacterial growth by broth microdilution method; type: functional, organism-based
# Escherichia coli [8] = assay: Antibacterial activity against Escherichia coli assessed as reduction in bacterial growth by broth microdilution method; type: functional, organism-based
# Klebsiella pneumoniae [9] = assay: Antibacterial activity against Klebsiella pneumoniae assessed as reduction in bacterial growth by broth microdilution method; type: functional, organism-based
# [10] = tested on: Staphylococcus auricularis; assay: Antibacterial activity against Staphylococcus auricularis assessed as reduction in bacterial growth by broth microdilution method; type: functional, organism-based
# Bacillus subtilis [11] = assay: Antibacterial activity against Bacillus subtilis assessed as reduction in bacterial growth by broth microdilution method; type: functional, organism-based
# Rattus norvegicus [12] = assay: Anti-inflammatory activity against carrageenan-induced acute paw edema in Wistar albino rat at 100 mg/kg assessed as inhibition of paw edema volume incubated for 3 hrs by Plethysmometric analysis relative to control; type: functional; set-up: scale not given: the % may be the effect or the level left
# Rattus norvegicus [13] = assay: Anti-inflammatory activity against carrageenan-induced acute paw edema in Wistar albino rat at 10 mg/kg assessed as inhibition of paw edema incubated for 3 hrs by Plethysmometric analysis relative to control; type: functional; set-up: scale not given: the % may be the effect or the level left
# Rattus norvegicus [14] = assay: Anti-inflammatory activity against carrageenan-induced acute paw edema in Wistar albino rat at 10 mg/kg assessed as inhibition of paw edema incubated for 5 hrs by Plethysmometric analysis relative to control; type: functional; set-up: scale not given: the % may be the effect or the level left
# [15] = Cytotoxicity activity against human Eca-109 cells assessed as reduction in cell viability measured after 48 hrs by MTT assay; type: toxicity, cell-based
# [16] = Cytotoxicity activity against human PC-3 cells assessed as reduction in cell viability measured after 48 hrs by MTT assay; type: toxicity, cell-based
# [17] = Cytotoxicity activity against human SMMC-7721 cells assessed as reduction in cell viability measured after 48 hrs by MTT assay; type: toxicity, cell-based
# [18] = tested on: Mycobacterium tuberculosis; assay: Antitubercular activity against Mycobacterium tuberculosis H37Rv assessed as reduction in microbial growth by broth dilution method; type: functional
# [19] = tested on: Mycobacterium tuberculosis; assay: Antitubercular activity against Mycobacterium tuberculosis H37Rv assessed as reduction in bacterial growth by microplate alamar blue assay; type: functional
# Bacillus subtilis [20] = assay: Antibacterial activity against Bacillus subtilis MTCC 121 assessed as zone of inhibition at 800 ug/mL by disk diffusion method; type: functional; settings: read-out: IZ
# Staphylococcus aureus = assay: Antibacterial activity against Staphylococcus aureus 22 assessed as zone of inhibition at 800 ug/mL by disk diffusion method; type: functional; settings: read-out: IZ
# Escherichia coli [21] = assay: Antibacterial activity against Escherichia coli K12 assessed as zone of inhibition at 800 ug/mL by disk diffusion method; type: functional; settings: read-out: IZ
# Klebsiella pneumoniae [22] = assay: Antibacterial activity against Klebsiella pneumoniae assessed as zone of inhibition at 800 ug/mL by disk diffusion method; type: functional; settings: read-out: IZ
# [23] = tested on: Human immunodeficiency virus 1; assay: Antiviral activity against HIV-1; type: functional, organism-based
# Cannabinoid receptor 1 = Cannabinoid receptor 1 (Rattus norvegicus, UniProt P20272); assay: Binding affinity to rat CB1 receptor
# Cannabinoid receptor 2 = Cannabinoid receptor 2 (Homo sapiens, UniProt P34972); assay: Binding affinity to human recombinant CB2 receptor
# Rattus norvegicus [24] = assay: Antihypertensive activity in Wistar rat assessed as decrease in systolic blood pressure at 20 mg/kg, po measured after 0.5 to 2 hrs by tail cuff method; type: functional; settings: time 0.5-2 hrs
# [25] = Toxicity in Nilaparvata lugens assessed as mortality at 0.8 mg/L relative to control; settings: at 0.8 µg/mL
# [26] = tested on: Mycobacterium tuberculosis; assay: Antitubercular activity against Mycobacterium tuberculosis 103471 assessed as reduction in bacterial growth; type: functional
# [27] = target: Tyrosine-protein kinase Lck (Homo sapiens, UniProt P06239); assay: Inhibition of human recombinant Lck
# MDA-MB-231 = assay: Antiproliferative activity against human MDA-MB-231 cells by SRB assay
# Rattus norvegicus [28] = assay: Anti-inflammatory activity against carrageenan-induced acute paw edema in Wistar albino rat at 10 mg/kg assessed as inhibition of paw edema volume incubated for 3 hrs by Plethysmometric analysis relative to control; type: functional; set-up: scale not given: the % may be the effect or the level left
# [29] = Cytotoxicity activity against human A549 cells assessed as reduction in cell viability measured after 48 hrs by MTT assay; type: toxicity, cell-based
# Sequence of Cannabinoid receptor 1 (P20272 whole entry): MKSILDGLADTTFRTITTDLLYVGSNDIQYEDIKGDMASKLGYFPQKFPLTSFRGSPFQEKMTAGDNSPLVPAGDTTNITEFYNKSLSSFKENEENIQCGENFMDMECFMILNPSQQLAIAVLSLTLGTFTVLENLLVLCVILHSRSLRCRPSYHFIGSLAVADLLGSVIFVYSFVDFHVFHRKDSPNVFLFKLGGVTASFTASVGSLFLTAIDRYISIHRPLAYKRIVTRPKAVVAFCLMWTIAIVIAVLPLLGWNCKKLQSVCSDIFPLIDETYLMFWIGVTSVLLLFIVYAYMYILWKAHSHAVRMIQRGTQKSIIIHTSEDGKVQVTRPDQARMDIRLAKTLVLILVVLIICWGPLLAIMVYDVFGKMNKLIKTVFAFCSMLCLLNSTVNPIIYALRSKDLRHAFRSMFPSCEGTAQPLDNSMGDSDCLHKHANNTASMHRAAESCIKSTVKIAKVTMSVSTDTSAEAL
# Sequence of Cannabinoid receptor 2 (P34972 whole entry): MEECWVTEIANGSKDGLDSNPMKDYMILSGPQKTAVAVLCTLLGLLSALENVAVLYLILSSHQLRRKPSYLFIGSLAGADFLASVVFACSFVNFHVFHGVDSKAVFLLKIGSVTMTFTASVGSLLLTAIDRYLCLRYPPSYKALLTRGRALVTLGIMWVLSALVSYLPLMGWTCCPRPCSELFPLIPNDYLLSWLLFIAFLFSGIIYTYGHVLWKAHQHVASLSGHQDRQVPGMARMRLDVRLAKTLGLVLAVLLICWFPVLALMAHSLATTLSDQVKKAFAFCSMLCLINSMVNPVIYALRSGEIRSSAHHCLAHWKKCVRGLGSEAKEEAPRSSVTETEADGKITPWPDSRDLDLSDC
# Sequence of Tyrosine-protein kinase Lck (P06239 whole entry): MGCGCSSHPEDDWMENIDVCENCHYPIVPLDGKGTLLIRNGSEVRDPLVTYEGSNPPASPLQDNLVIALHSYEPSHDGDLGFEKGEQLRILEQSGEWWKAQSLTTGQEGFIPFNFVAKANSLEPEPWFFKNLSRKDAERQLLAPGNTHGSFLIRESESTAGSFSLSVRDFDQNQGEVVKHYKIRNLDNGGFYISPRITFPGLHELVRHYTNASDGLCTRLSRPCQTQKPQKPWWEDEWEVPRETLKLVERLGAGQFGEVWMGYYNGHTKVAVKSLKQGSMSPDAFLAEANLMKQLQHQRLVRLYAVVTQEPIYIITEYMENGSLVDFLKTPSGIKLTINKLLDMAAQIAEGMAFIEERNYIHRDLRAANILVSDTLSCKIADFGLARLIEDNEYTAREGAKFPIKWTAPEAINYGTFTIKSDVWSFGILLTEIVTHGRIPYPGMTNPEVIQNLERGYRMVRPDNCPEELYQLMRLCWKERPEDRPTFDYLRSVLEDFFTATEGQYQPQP
smiles,measurement,setting,value
O=[N+]([O-])c1ccccc1S(=O)(=O)c1ccccc1,EC50,[1],3.4 µM
CCOC(=O)c1cccn1S(=O)(=O)c1ccccc1[N+](=O)[O-],EC50,[1],15.1 µM
COC(=O)c1c(C2C(=O)N(C)C(=O)N(C)C2=O)c(-c2ccccc2)n(-c2ccc(OC)c(S(=O)(=O)N3CCOCC3)c2)c1C(=O)OC,IC50 at 72 h,[2],39 µM
same,IC50 at 72 h,[3],25.5 µM
same,IC50 at 72 h,[4],30.6 µM
CC(C(=O)c1cc(/C=C/C(=O)NO)n(C)c1)c1ccccc1 (configuration not stated),IC50,[5],0.112 µM
same,IC50,[6],0.015 µM
same,IC50,[7],0.028 µM
Cc1c[nH]c(C(=O)N/N=C(/N=N/c2ccccc2)c2ccccc2O)c1C,IC50,Pseudomonas aeruginosa,15.6 µM
same,IC50,Escherichia coli [8],15.6 µM
same,IC50,Klebsiella pneumoniae [9],15.6 µM
same,IC50,[10],460 µM
same,IC50,Bacillus subtilis [11],460 µM
O=C(O)Cn1c(C(=O)O)c(C(=O)c2cccs2)c2sc(C(=O)O)cc21,Activity,Rattus norvegicus [12],36%
O=C(Nc1nnc(-c2ccccc2)s1)c1c[nH]cc1-c1ccc([N+](=O)[O-])cc1,Activity,Rattus norvegicus [13],76.24%
same,Activity,Rattus norvegicus [14],78.62%
CN1C(=O)C(c2ccc[nH]2)=C(c2c[nH]c3ccc(Br)cc23)C1=O,IC50 at 48 h,[15],6.21 µM
same,IC50 at 48 h,[16],2.16 µM
same,IC50 at 48 h,[17],29.7 µM
CCOc1cc(C2OC(c3ccc(-n4cccc4)cc3)=NN2C(C)=O)ccc1O (configuration not stated),MIC,[18],0.2 µg/mL
O=C(N/N=C/c1ccc(C(c2cccc([N+](=O)[O-])c2)c2ccc(/C=N/NC(=O)c3ccncc3)[nH]2)[nH]1)c1ccncc1,MIC,[19],7.9 µg/mL
CCCC/C=C/CCC(O)CCCCCCCC(=O)Nn1c(C)ccc1C (configuration not stated),zone of inhibition at 800 µg/mL,Bacillus subtilis [20],18 mm
same,zone of inhibition at 800 µg/mL,Staphylococcus aureus,20 mm
same,zone of inhibition at 800 µg/mL,Escherichia coli [21],22 mm
same,zone of inhibition at 800 µg/mL,Klebsiella pneumoniae [22],21 mm
CCCCCCC(O)C/C=C/CCCCCCCCC(=O)Nn1c(C)ccc1C (configuration not stated),zone of inhibition at 800 µg/mL,Bacillus subtilis [20],19 mm
same,zone of inhibition at 800 µg/mL,Staphylococcus aureus,18 mm
same,zone of inhibition at 800 µg/mL,Escherichia coli [21],21 mm
same,zone of inhibition at 800 µg/mL,Klebsiella pneumoniae [22],20 mm
Cc1ccc(C)n1-c1ccc(C(=O)n2[nH]c(=O)c3ccccc3c2=O)cc1,MIC,[18],0.4 µg/mL
CCCCc1c(COC(N)=O)cn(Cc2ccncc2)c1Sc1cc(Cl)cc(Cl)c1,EC50,[23],0.007 µM
CCCCCn1c(C)c(Br)c(C(=O)c2cccc3ccccc23)c1C,EC50,Cannabinoid receptor 1,0.0133 µM
same,EC50,Cannabinoid receptor 2,0.0068 µM
CCOC(=O)c1cc(-c2ccc([N+](=O)[O-])cc2)n(-c2ccc(C3=NNC(=O)CC3)cc2)c1C,Activity,Rattus norvegicus [24],70.3 mmHg
CCOc1c([N+](=O)[O-])c2n(c1C)CCN2Cc1cnc(Cl)s1,mortality,[25],50%
Cc1c(CN2CCSCC2)cc(-c2ccccc2F)n1-c1ccccc1F,MIC,[26],1 µg/mL
NC(=O)c1c(-c2ccc(Oc3ccccc3)cc2)[nH]c(C(=O)c2c(F)cccc2F)c1N,IC50,[27],0.0011 µM
O=C(O)c1cn(C2CC2)c2cc(N3CCNCC3)c(F)cc2c1=O [CIPROFLOXACIN],zone of inhibition at 800 µg/mL,Bacillus subtilis [20],18 mm
same,zone of inhibition at 800 µg/mL,Staphylococcus aureus,20 mm
same,zone of inhibition at 800 µg/mL,Klebsiella pneumoniae [22],23 mm
COc1cc2c(c(OC)c1OC)-c1ccc(OC)c(=O)cc1[C@@H](NC(C)=O)CC2 [COLCHICINE],IC50,MDA-MB-231,2 µM
O=C([O-])Cc1ccccc1Nc1c(Cl)cccc1Cl.[Na+] [DICLOFENAC SODIUM],Activity,Rattus norvegicus [28],68%
CC[C@@H](CO)NCCN[C@@H](CC)CO [ETHAMBUTOL],MIC,[18],0.5 µg/mL
NNc1nncc2ccccc12 [HYDRALAZINE],Activity,Rattus norvegicus [24],83.59 mmHg
O=[N+]([O-])NC1=NCCN1Cc1ccc(Cl)nc1 [IMIDACLOPRID],mortality,[25],40%
COc1ccc2c(c1)c(CC(=O)O)c(C)n2C(=O)c1ccc(Cl)cc1 [INDOMETHACIN],Activity,Rattus norvegicus [13],74.82%
same,Activity,Rattus norvegicus [14],80.32%
NNC(=O)c1ccncc1 [ISONIAZID],MIC,[19],7.9 µg/mL
same,MIC,[18],0.2 µg/mL
same,MIC,[26],0.25 µg/mL
CN1C(C(=O)Nc2ccccn2)=C(O)c2ccccc2S1(=O)=O [PIROXICAM],Activity,Rattus norvegicus [28],59%
CO[C@H]1/C=C/O[C@@]2(C)Oc3c(C)c(O)c4c(O)c(c(/C=N/N5CCN(C)CC5)c(O)c4c3C2=O)NC(=O)/C(C)=C\C=C\[C@H](C)[C@H](O)[C@@H](C)[C@@H](O)[C@@H](C)[C@H](OC(C)=O)[C@@H]1C [RIFAMPIN],MIC,[18],0.4 µg/mL
same,MIC,[26],0.3 µg/mL
O=C1NC(=O)C(c2c[nH]c3ccccc23)=C1c1c[nH]c2ccccc12 [RO-316233],IC50 at 48 h,[15],15.9 µM
same,IC50 at 48 h,[16],10.3 µM
same,IC50 at 48 h,[17],13.2 µM
same,IC50 at 48 h,[29],4.14 µM
CN[C@@H]1[C@H](O[C@H]2[C@H](O[C@H]3[C@H](O)[C@@H](O)[C@H](N=C(N)N)[C@@H](O)[C@@H]3N=C(N)N)O[C@@H](C)[C@]2(O)C=O)O[C@@H](CO)[C@H](O)[C@H]1O [STREPTOMYCIN],MIC,[26],0.5 µg/mL
NC(=O)N1C(=O)/C(=C(\[O-])c2cccs2)c2cc(Cl)ccc21.[Na+] [TENIDAP SODIUM],Activity,Rattus norvegicus [28],60%
CN(C)[C@@H]1C(O)=C(C(N)=O)C(=O)[C@@]2(O)C(O)=C3C(=O)c4c(O)cccc4[C@@](C)(O)[C@H]3C[C@@H]12 [TETRACYCLINE],IC50,Pseudomonas aeruginosa,1.25 µM
same,IC50,Escherichia coli [8],10 µM
same,IC50,Klebsiella pneumoniae [9],0.312 µM
same,IC50,[10],10 µM
same,IC50,Bacillus subtilis [11],1.25 µM
CC(/C=C/C(=O)NO)=C\[C@@H](C)C(=O)c1ccc(N(C)C)cc1 [TRICHOSTATIN],IC50,[5],0.007 µM
same,IC50,[6],0.0004 µM
same,IC50,[7],0.0008 µM
